Laboratory results from patent EP1834952A1, “Compound for promoting the growth of neural cells” (NatureWise Biotech & Medicals Corporation, priority 2006, dated 2007).

Assays:
Assay type in all cases: cell-based, Wistar rat
[1] = system: cortical neurons; experiment: Survival of cortical neurons, live cell count by MTT assay (Examples 2 and 3); settings: 300 cells/mm^2; 5 days; versus DMSO control; FIG. 2
Protocol: Cells obtained from the suspension prepared in Example 1 were cultivated in 6-well plates coated with 30 µg/ml of poly-D-lysine (Sigma) at 300 cells/mm^2 and cultivated at 37°C, 5% CO2 and 95% relative humidity. The growth media contained compounds A, B, D, E, F, G, and H respectively and the growth media added with 5 µl of DMSO were used as control. The differentiated cells after cultivation were categorically called cortical neurons.
The experiments were repeated three times. After cultivating for 5 days, live cells were counted by a known cell-counting method (MTT assay) and the absorbance was read at 540 nm.
(§1) Cells obtained from the suspension prepared in Example 1 were cultivated at a density of 150 or 300 cells/mm^2 in 6-well plates coated with 30 µg/ml poly-D-lysine (Sigma) at 37°C, 5% CO2 and 95% relative humidity. The growth media contained compounds A, D, and G respectively and the growth media added with 5 µl of DMSO were used as control. The differentiated cells are categorically called cortical neurons.
The experiments were repeated three times. After cultivating for 5 days, the live cells were counted by a known cell-counting method (MTT assay) and the absorbance was read at 540 nm.

[2] = system: cortical neurons; experiment: Neurite length of cortical neurons cultivated at low density, by microscope (Example 4); settings: 38 cells/mm^2, 5 days; for growth of neurons and neurites under microscope: in the control all neural cells are dead
Protocol: as §1, with “38 cells/ mm^2” for “150 or 300 cells/mm^2”, “A, B,” for “A,”
The experiments were repeated three times. After cultivating for 5 days, the cells were observed under microscope and the length of the neurites was measured.

[3] = system: neural stem cells; experiment: Differentiation of NSCs from neurospheres, MAP-2 immunofluorescent staining (Examples 5 and 6)
Protocol: In the beginning of cultivating NSCs, either compound A or EGF was added into the growth media. The cells were cultivated for 3 days and the cells would aggregate to form neurospheres. One hundred µl of the cell suspension was aspirated and diluted to 1 ml. 250 µl of the supernatant which contained neurospheres was aspirated and placed on the cover slides coated with 30 µg/ml poly-D-lysine (Sigma). After all the cells had been attached onto the slides, the media was removed and replaced with the cultivating media containing compound A (FIG. 5A), EGF (FIG. 5C), or none of the growth factors (FIG. 5B, compound A in the beginning; FIG 5D, EGF in the beginning). The cells were cultivated for another 3 days at the same condition as described above so that the cells would differentiate into cortical neurons.
The cells were stained with a known immunofluorescent staining method. To stain the neurons, a neurological marker of MAP-2 (microtubule-associated protein 2) antibody was used as the primary antibody and a fluorescent material-labeled mouse immunoglobulin that identified primary antibody was used as the second antibody. After the primary antibody that had been bound onto the neurons was identified and bound by the secondary antibody, the neurons emit fluorescent light under the excitation of a specific light source.
The procedures were similar to Example 5. However, in the beginning of cultivating the neural stem cells, both compound D and EGF were added into the media. After all the cells had been attached onto the slides, the media were removed and replaced with the cultivating media containing compound D (FIG. 6B), EGF (FIG. 6C), none of the growth factors (FIG. 6D), or both compound D and EGF (FIG. 6A). The cells were cultivated for another 3 days and the cell morphology was observed thereafter by using immunofluorescent staining technique.

[4] = system: NSCs; experiment: Continuous cultivation of NSCs for 30 days, morphology and later differentiation (Example 7)
Protocol: As in Example 1, the NSCs were cultivated continuously and the growth media were replaced every seven days. DMSO-added growth media were used as the negative control. After 30 days, 100 µl of the cell suspension was aspirated and diluted to 1 ml. 250 µl of the supernatant was aspirated and placed on the slides coated with 30 µg/ml poly-D-lysine (Sigma). The cell morphology was observed thereafter under a microscope.
Unlike the normal neural stem cells, the cells lose their propensity to aggregate and form spheres, and the cells become atrophic in the cultivating suspension. […] These cells were cultivated for another 3 days and the cells were stained with immunofluorescence the same as in Example 5.

SMILES	absorbance at 540 nm (live cells, MTT assay) [1]	length of neurites, L1 ([2]; 2.5 µM)	length of neurites, L2 ([2]; 2.5 µM)	neurites extending out of each soma ([2]; 2.5 µM)	growth of neurons and neurites under microscope ([2]; 2.5 µM)	differentiation of NSCs (MAP-2 staining) ([3]; supplemented in the beginning (3 days) and thereafter at seeding on slides (another 3 days), FIG. 5A/5C)	differentiation of NSCs (MAP-2 staining) ([3]; supplemented in the beginning only, none thereafter, FIG. 5B/5D)	cell morphology of NSCs after 30 days ([4]; media replaced every seven days, almost no surviving cells in DMSO control, FIG. 7B)	differentiation of 30-day neurospheres (immunofluorescence) ([4]; then another 3 days on slides, FIG. 7C)	length of neurites, L1 ([2]; 5 µM)	length of neurites, L2 ([2]; 5 µM)	neurites extending out of each soma ([2]; 5 µM)	growth of neurons and neurites under microscope ([2]; 5 µM)	differentiation of NSCs (MAP-2 staining) ([3]; both compound D and EGF in the beginning, compound D thereafter, FIG. 6B)
C/C(=C\Cc1c([C@@H]2CC(=O)c3c(O)cc(O)cc3O2)ccc(O)c1O)CCCC(C)(C)O [compound A]	best results	236 µm	161 µm	at least 3	continuous growth of the neurons and the extension of the neurites can be observed	the cells will differentiate into neurons	the cells will differentiate into neurons	can maintain the characteristics of forming spherical clusters	differentiating normally into neurons with the continuous outgrowth of neurites	–	–	–	–	–
CC(C)=CCC/C(C)=C/Cc1c(O)cc2c(c1O)C(=O)C[C@@H](c1ccc(O)c(O)c1CC=C(C)C)O2 [compound G]	best results	–	–	–	–	–	–	–	–	316 µm	216 µm	at least 3	continuous growth of the neurons and the extension of the neurites can be observed	–
C/C(=C\Cc1cc([C@@H]2CC(=O)c3c(O)cc(O)cc3O2)cc(O)c1O)CCCC(C)(C)O [compound B]	–	–	–	–	–	–	–	–	–	235 µm	–	at least 3	continuous growth of the neurons and the extension of the neurites can be observed	–
CC(C)=CCC/C(C)=C/Cc1c([C@@H]2CC(=O)c3c(O)cc(O)cc3O2)ccc(O)c1O [compound D]	best results	–	–	–	–	–	–	–	–	211 µm	–	at least 3	continuous growth of the neurons and the extension of the neurites can be observed	the cells will differentiate into neurons
